Data as given in US20030229053A1, “Compounds and methods for the treatment or prevention of flavivirus infections” (Shire BioChem Inc., priority 2001, published 2003).

Target: recombinant HCV NS5B (Hepatitis C virus genotype 1b, UniProt P26663)
Test: biochemical
Settings: flashplate, polyrA/biotinylated-oligo dT, 100 nM NS5B, 2 hrs at room temperature; read-out: RNA pol Assay 2 IC50 (μm)
Description: In vitro HCV RdRp Flashplate Scintillation Proximity Assay (Strep-Flash Assay) Used to Evaluate Analogues:
In brief, a 400 ng/μl polyrA solution (Amersham Pharmacia Biotech) was mixed volume-to-volume with 5′ biotin-oligo dT12 at 20 pmol/μl. The template and primers were denatured at 95 C for 5 minutes then incubated at 37 C for 10 minutes. Annealed template-primers were subsequently diluted in a Tris-HCl containing buffer and allowed to bind to streptavidin-coated flashplates overnight.

Sequence of recombinant HCV NS5B (P26663 2420-3010 limits assumed): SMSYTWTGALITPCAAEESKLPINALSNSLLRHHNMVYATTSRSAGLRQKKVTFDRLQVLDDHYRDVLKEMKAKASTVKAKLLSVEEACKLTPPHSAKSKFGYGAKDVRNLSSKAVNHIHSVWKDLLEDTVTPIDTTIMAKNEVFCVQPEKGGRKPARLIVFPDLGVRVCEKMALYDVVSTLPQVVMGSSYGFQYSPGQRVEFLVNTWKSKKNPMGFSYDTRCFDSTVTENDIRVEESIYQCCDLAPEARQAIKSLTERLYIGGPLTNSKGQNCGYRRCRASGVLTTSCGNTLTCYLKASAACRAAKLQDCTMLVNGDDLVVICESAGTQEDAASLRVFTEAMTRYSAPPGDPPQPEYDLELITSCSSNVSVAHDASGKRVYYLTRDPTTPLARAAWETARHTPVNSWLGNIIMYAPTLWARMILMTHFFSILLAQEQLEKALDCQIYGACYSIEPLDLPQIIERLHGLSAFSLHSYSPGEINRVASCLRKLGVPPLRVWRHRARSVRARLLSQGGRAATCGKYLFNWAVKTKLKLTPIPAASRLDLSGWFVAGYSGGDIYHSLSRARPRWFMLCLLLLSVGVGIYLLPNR

Row | IC50 | SMILES
1 | < 5 µM | CCOC(=O)c1ccc(-c2ccsc2CN(C(=O)c2ccc(Cl)cc2Cl)[C@@H](Cc2ccccc2)C(=O)O)cc1 [compound #160, (2s)-4-(2-{[(1s-1-Carboxy-2-phenyl-ethyl)-(2,4-dichloro-benzoyl)-amino]-methyl}-thiophen-3-yl)-benzoic acid ethyl ester]
2 | 5 to 20 µM | O=C(O)[C@H](Cc1ccccc1)N(Cc1sccc1-c1cccc(F)c1)C(=O)c1ccc(Cl)cc1Cl [compound #161, (2s)-2-{(2,4-Dichloro-benzoyl)-[3-(3-fluoro-phenyl)-thiophen-2-ylmethyl]-amino}-3-phenyl-propionic acid]
3 | < 5 µM | N#Cc1cccc(-c2ccsc2CN(C(=O)c2ccc(Cl)cc2Cl)[C@@H](Cc2ccccc2)C(=O)O)c1 [compound #162, (2s)-2-[[3-(3-Cyano-phenyl)-thiophen-2-ylmethyl]-(2,4-dichloro-benzoyl)-amino]-3-phenyl-propionic acid]
4 | 5 to 20 µM | O=C(O)C(c1cccs1)N(Cc1ccc(-c2cccc(C(F)(F)F)c2)o1)C(=O)c1ccc(Cl)cc1Cl (stereo not shown) [compound #163, {(2,4-Dichloro-benzoyl)-[5-(3-trifluoromethyl-phenyl)-furan-2-ylmethyl]-amino}-thiophen-2-yl-acetic acid]
5 | 5 to 20 µM | CC(C)(C)OC(=O)N1CCC[C@H]1CN(C(=O)c1ccc(Cl)cc1Cl)[C@@H](Cc1ccccc1)C(=O)O [compound #164, L-2-{[(1-Carboxy-2-phenyl-ethyl)-(2,4-dichloro-benzoyl)-amino]-methyl}-pyrrolidine-1-carboxylic acid #tert!-butyl ester]
6 | 5 to 20 µM | CC(C)(C)OC(=O)N1CCC[C@@H]1CN(C(=O)c1ccc(Cl)cc1Cl)[C@@H](Cc1ccccc1)C(=O)O [compound #165, d-2-{[(1-carboxy-2-phenyl-ethyl)-(2,4-dichloro-benzoyl)-amino]-methyl}-pyrrolidine-1-carboxylic acid #tert!-butyl ester]
7 | 5 to 20 µM | O=C(O)[C@H](Cc1ccccc1)N(C(=O)c1ccc(Cl)cc1Cl)C1CCN(C(=O)OCc2ccccc2)CC1 [compound #166, 4-[(1-Carboxy-2-phenyl-ethyl)-(2,4-dichloro-benzoyl)-amino]-piperidine-1-carboxylic acid benzyl ester]
8 | 5 to 20 µM | O=C(O)[C@H](Cc1ccccc1)N(C[C@@H]1CCCN1)C(=O)c1ccc(Cl)cc1Cl [compound #167, 1-2-[(2,4-Dichloro-benzoyl)-pyrrolidin-2-ylmethyl-amino]-3-phenyl-propionic acid]
9 | 5 to 20 µM | O=C(O)[C@H](Cc1ccccc1)N(Cc1cccnc1)C(=O)c1ccc(Cl)cc1Cl [compound #170, 2-[(2,4-Dichloro-benzoyl)-pyridin-3-ylmethyl-amino]-3-phenyl-propionic acid]
10 | 5 to 20 µM | O=C(O)C(Cc1ccccc1)N(Cc1ccc(C(F)(F)F)cc1)C(=O)c1ccc(Cl)cc1Cl (stereo not shown) [compound #171, 2-[(2,4-Dichloro-benzoyl)-(4-trifluoromethyl-benzyl)-amino]-3-phenyl-propionic acid]
11 | 5 to 20 µM | O=C(O)C(Cc1ccccc1)N(Cc1ccc(OCc2ccc(F)cc2)cc1)C(=O)c1ccc(Cl)cc1Cl (stereo not shown) [compound #172, 2-{(2,4-Dichloro-benzoyl)-[4-(4-fluoro-benzyloxy)-benzyl]-amino}-3-phenyl-propionic acid]
12 | 5 to 20 µM | O=C(O)C(Cc1ccccc1)N(Cc1ccc(F)c(C(F)(F)F)c1)C(=O)c1ccc(Cl)cc1Cl (stereo not shown) [compound #173, 2-[(2,4-Dichloro-benzoyl)-(4-fluoro-3-trifluoromethyl-benzyl)-amino]-3-phenyl-propionic acid]
13 | 5 to 20 µM | O=C(O)C(Cc1ccccc1)N(Cc1cccn1S(=O)(=O)c1ccccc1)C(=O)c1ccc(Cl)cc1Cl (stereo not shown) [compound #174, 2-[(1-Benzenesulfonyl-1h-pyrrol-2-ylmethyl)-(2,4-dichloro-benzoyl)-amino]-3-phenyl-propionic acid]
14 | 5 to 20 µM | O=C(O)C(Cc1ccccc1)N(Cc1cccc(Oc2ccc(Cl)cc2)c1)C(=O)c1ccc(Cl)cc1Cl (stereo not shown) [compound #175, 2-[[3-(4-Chloro-phenoxy)-benzyl]-(2,4-dichloro-benzoyl)-amino]-3-phenyl-propionic acid]
15 | 5 to 20 µM | O=C(O)C(Cc1ccccc1)N(Cc1ccccc1OCc1ccccc1)C(=O)c1ccc(Cl)cc1Cl (stereo not shown) [compound #177, 2-[(2-Benzyloxy-benzyl)-(2,4-dichloro-benzoyl)-amino]-3-phenyl-propionic acid]
16 | 5 to 20 µM | COc1ccc(C(C)C)cc1-c1ccsc1CN(C(=O)c1ccc(Cl)cc1Cl)[C@@H](Cc1ccccc1)C(=O)O [compound #178, 2-{(2,4-Dichloro-benzoyl)-[3-(5-isopropyl-2-methoxy-phenyl)-thiophen-2-ylmethyl]-amino}-3-phenyl-propionic acid]
17 | 5 to 20 µM | O=C(O)[C@H](Cc1ccccc1)N(Cc1sccc1-c1ccc(OC(F)(F)F)cc1)C(=O)c1ccc(Cl)cc1Cl [compound #179, 2-{(2,4-Dichloro-benzoyl)-[3-(4-trifluoromethoxy-phenyl)-thiophen-2-ylmethyl]-amino}-3-phenyl-propionic acid]
18 | 5 to 20 µM | O=C(O)[C@H](Cc1ccccc1)N(Cc1sccc1-c1cccc(C(F)(F)F)c1)C(=O)c1ccc(Cl)cc1Cl [compound #180, 2-{(2,4-Dichloro-benzoyl)-[3-(3-trifluoromethyl-phenyl)-thiophen-2-ylmethyl]-amino}-3-phenyl-propionic acid]
19 | 5 to 20 µM | O=C(O)[C@H](Cc1ccccc1)N(Cc1sccc1-c1cc(C(F)(F)F)cc(C(F)(F)F)c1)C(=O)c1ccc(Cl)cc1Cl [compound #181, 2-[[3-(3,5-Bis-trifluoromethyl-phenyl)-thiophen-2-ylmethyl]-(2,4-dichloro-benzoyl)-amino]-3-phenyl-propionic acid]
20 | 5 to 20 µM | O=C(O)[C@H](Cc1ccccc1)N(Cc1sccc1-c1ccncc1)C(=O)c1ccc(Cl)cc1Cl [compound #182, 2-[(2,4-Dichloro-benzoyl)-(3-pyridin-4-yl-thiophen-2-ylmethyl)-amino]-3-phenyl-propionic acid]
21 | 5 to 20 µM | CSc1ccc(-c2ccsc2CN(C(=O)c2ccc(Cl)cc2Cl)[C@@H](Cc2ccccc2)C(=O)O)cc1 [compound #183, 2-{(2,4-Dichloro-benzoyl)-[3-(4-methylsulfanyl-phenyl)-thiophen-2-ylmethyl]-amino}-3-phenyl-propionic acid]
22 | < 5 µM | O=C(O)[C@H](Cc1ccccc1)N(Cc1sccc1-c1ccc(F)cc1)C(=O)c1ccc(Cl)cc1Cl [compound #184, 2-{(2,4-Dichloro-benzoyl)-[3-(4-fluoro-phenyl)-thiophen-2-ylmethyl]-amino}-3-phenyl-propionic acid]
23 | < 5 µM | O=C(O)[C@H](Cc1ccccc1)N(Cc1sccc1-c1cccnc1)C(=O)c1ccc(Cl)cc1Cl [compound #185, 2-[(2,4-Dichloro-benzoyl)-(3-pyridin-3-yl-thiophen-2-ylmethyl)-amino]-3-phenyl-propionic acid]
24 | 5 to 20 µM | O=C(O)[C@H](Cc1ccccc1)N(Cc1ccccc1Br)C(=O)c1ccc(Cl)cc1Cl [compound #187, 2-[(2-Bromo-benzyl)-(2,4-dichloro-benzoyl)-amino]-3-phenyl-propionic acid]
25 | 5 to 20 µM | CN(C(=O)c1ccc(Cl)cc1Cl)[C@@H](Cc1ccccc1Br)C(=O)O [compound #188, 3-(2-Bromo-phenyl)-2-[(2,4-dichloro-benzoyl)-methyl-amino]-propionic acid]
26 | < 5 µM | CN(C(=O)c1ccc(Cl)cc1Cl)[C@H](Cc1ccc(Br)cc1)C(=O)O [compound #189, 3-(4-Bromo-phenyl)-2-[(2,4-dichloro-benzoyl)-methyl-amino]-propionic acid]
27 | 5 to 20 µM | O=C(O)C(Cc1ccccc1)N(C(=O)c1ccc(Cl)cc1Cl)c1cccc(Br)c1 (stereo not shown) [compound #190, 2-[(3-Bromo-phenyl)-(2,4-dichloro-benzoyl)-amino]-3-phenyl-propionic acid]
28 | > 20 µM | O=C(O)[C@H](Cc1ccccc1)N(C(=O)c1ccc(Cl)cc1Cl)c1ccc(Br)cc1 [compound #191, 2-[(4-Bromo-phenyl)-(2,4-dichloro-benzoyl)-amino]-3-phenyl-propionic acid]
